# In US11739068B2, “Polymorphs of N-[(3-fluoro-4-methoxypyridin-2-yl)methyl]-3-(methoxymethyl)-1-({4-[(2-oxopyridin-1-yl)methyl]phenyl}methyl)pyrazole-4-carboxamide and salts thereof” (KALVISTA PHARMACEUTICALS LIMITED, priority 2016, dated 2023):
# Columns and labels:
# [1] = test system: LPS-induced disseminated intravascular coagulation; conditions: cited from earlier work
# blood = blood contacted with inhibitor; cited from earlier work
# [2] = in vivo; cited from earlier work
# [3] = test system: intrinsic pathway of coagulation; conditions: in vitro; cited from earlier work
# [4] = in vivo; cited from earlier work; remark: listed apart in the source
# Human KLK1 = biological target: T1, Human KLK1 (Homo sapiens, UniProt P06870); test: Determination of the IC50 for KLK1; assay type: biochemical; conditions: 25° C., fluorogenic substrate H-DVal-Leu-Arg-AFC
# T1 construct: purchased Callbiochem
# T1 sequence (P06870 25-262): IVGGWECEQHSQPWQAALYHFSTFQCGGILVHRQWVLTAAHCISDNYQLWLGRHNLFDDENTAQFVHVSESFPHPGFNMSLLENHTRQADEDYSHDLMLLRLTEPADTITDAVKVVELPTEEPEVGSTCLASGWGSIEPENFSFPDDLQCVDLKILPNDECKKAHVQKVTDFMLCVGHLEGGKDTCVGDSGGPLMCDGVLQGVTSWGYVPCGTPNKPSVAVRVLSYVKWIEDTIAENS
# Procedure: KLK1 inhibitory activity in vitro was determined using standard published methods (see e.g. Johansen et al., Int. J. Tiss. Reac. 1986, 8, 185; Shori et al., Biochem. Pharmacol., 1992, 43, 1209; Sturzebecher et al., Biol. Chem. Hoppe-Seyler, 1992, 373, 1025). Human KLK1 (Callbiochem) was incubated at 25° C. with the fluorogenic substrate H-DVal-Leu-Arg-AFC and various concentrations of the test compound. Residual enzyme activity (initial rate of reaction) was determined by measuring the change in […] at 410 nm and the IC50 value for the test compound was determined.
# [5] = Stability study of Form 1 (double polyethylene bags, HDPE bottle); assay type: physicochemical; conditions: for Change in the XRPD diffractogram on storage: after 1 month and 3 months
# Procedure: Further evidence of the suitability of the crystalline forms of N-[(3-fluoro-4-methoxypyridin-2-yl)methyl]-3-(methoxymethyl)-1-({4-[(2-oxopyridin-1-yl)methyl]phenyl}methyl)pyrazole-4-carboxamide for pharmaceutical development is provided by the stability data disclosed herein. Two samples of Form 1 of N-[(3-fluoro-4-methoxypyridin-2-yl)methyl]-3-(methoxymethyl)-1-({4-[(2-oxopyridin-1-yl)methyl]phenyl}methyl)pyrazole-4-carboxamide were stored at 25° C./60% RH and 40° C./75% RH packed in double polyethylene bags and sealed in a HDPE bottle.
# A sample of Form 1 was packed in double polyethylene bags and sealed in a HDPE bottle and stored at conditions of 25° C./60% RH. The sample was reanalysed after 1 month and 3 months by XRPD (using Method B). No change in the XRPD diffractogram was observed when the sample was stored at 25° C./60% RH after either 1 month or 3 months.
# Further tests on the sample of Form 1 stored at 25° C./60% RH were carried out as described in the table below:
# A second sample of Form 1 was packed in double polyethylene bags and sealed in a HDPE bottle and stored under accelerated stability conditions of 40° C./75% RH. The sample was reanalysed after 1 month and 3 months by XRPD (using Method B). No change in the XRPD diffractogram was observed when the sample was stored at 40° C./75% RH after either 1 month or 3 months.
# Further tests on the sample of Form 1 stored at 40° C./75% RH were carried out as described in the table below: […]
# [6] = Gravimetric Vapour Sorption (GVS); assay type: physicochemical
# Procedure: Gravimetric Vapour Sorption (GVS) data were collected using the following method: Approximately 10 mg of sample was placed into a wire-mesh vapour sorption balance pan and loaded into an ‘IgaSorp’ vapour sorption balance (Hiden Analytical Instruments). The sample was then dried by maintaining a 0% humidity environment until no further weight change was recorded. Subsequently, the sample was then subjected to a ramping profile from 0-90% RH at 10% RH increments, maintaining the sample at each step until equilibration had been attained (99% step completion). Upon reaching equilibration, the % RH within the apparatus was ramped to the next step and the equilibration procedure repeated. After completion of the sorption cycle, the sample was then dried using the same procedure. The weight change during the sorption/desorption cycles were then monitored, allowing for the hygroscopic nature of the sample to be determined.
# [7] = Visual aqueous solubility; assay type: physicochemical; conditions: water, thermodynamic from solid
# Procedure: Form 1 (10 mg) was weighed into a glass vial and water was added in 100 μL portions up to 3 mL then 1 mL portions thereafter. Solubility was assessed visually following a brief period of equilibration.
# Form 18 (10 mg) was weighed into a glass vial and water was added in 100 μL portions up to 3 mL then 1 mL portions thereafter. Solubility was assessed visually following a brief period of equilibration.
# Form 8 (10 mg) was weighed into a glass vial and water was added in 100 μL portions up to 3 mL then 1 mL portions thereafter. Solubility was assessed visually following a brief period of equilibration.
# Form 15 (10 mg) was weighed into a glass vial and water was added in 100 μL portions up to 3 mL then 1 mL portions thereafter. Solubility was assessed visually following a brief period of equilibration.
# Form 16 (10 mg) was weighed into a glass vial and water was added in 100 μL portions up to 3 mL then 1 mL portions thereafter. Solubility was assessed visually following a brief period of equilibration.
# Slurry studies = assay type: physicochemical; conditions: 90/10 IPA/water, ambient temperature, 72 hrs
# Procedure: Form 1 (20 mg) was suspended in 90/10 IPA/water (200 μL or […]) and shaken at ambient temperature for 72 hrs. The supernatant was evaporated rather than filtered due to the small volume and the resulting solid was examined by XRPD (FIG. 6).
# The supernatant was evaporated rather than filtered due to the small volume and the resulting solid was examined by XRPD (FIG. 28).
# The supernatant was evaporated rather than filtered due to the small volume and the resulting solid was examined by XRPD (FIG. 34).
# The supernatant was evaporated rather than filtered due to the small volume and the resulting solid was examined by XRPD (FIG. 40).
compound,measurement,setting,value
Cl.NCC1CCC(C(=O)N[C@@H](Cc2ccccc2)C(=O)Nc2ccc(CC(=O)O)cc2)CC1 (stereo partly shown) [PKSI-527],"Effect on platelet count, fibrinogen level and FDP level",[1],significantly suppressed the decrease in platelet count and fibrinogen level as well as the increase in FDP level
Ecallantide,Activated clotting time (ACT),blood,increase in activated clotting time (ACT)
same,Anaphylactic reactions,[2],risks of anaphylactic reactions
same,Contact activated induced coagulation,[3],delay contact activated induced coagulation
C=Cc1cc(C(=O)Nc2ccc(C(=N)N)cc2)c(-c2ccc(C(=O)NCC3CC3)nc2C(=O)O)cc1OC [BCX4161],Oral availability,[4],orally available
COCc1nn(Cc2ccc(Cn3ccccc3=O)cc2)cc1C(=O)NCc1nccc(OC)c1F [N-[(3-fluoro-4-methoxypyridin-2-yl)methyl]-3-(methoxymethyl)-1-({4-[(2-oxopyridin-1-yl)methyl]phenyl}methyl)pyrazole-4-carboxamide],IC50,Human KLK1,> 40 µM
"COCc1nn(Cc2ccc(Cn3ccccc3=O)cc2)cc1C(=O)NCc1nccc(OC)c1F [Form 1, N-[(3-fluoro-4-methoxypyridin-2-yl)methyl]-3-(methoxymethyl)-1-({4-[(2-oxopyridin-1-yl)methyl]phenyl}methyl)pyrazole-4-carboxamide]",Appearance,"[5]; 25° C./60% RH, 1 month",Off-white
same,Assay by HPLC (on an anhydrous and solvent free basis),"[5]; 25° C./60% RH, 1 month",99.5 % w/w
same,DSC Tonset,"[5]; 25° C./60% RH, 1 month",151.1 °C
same,DSC Tpeak,"[5]; 25° C./60% RH, 1 month",152.4 °C
same,HPLC assay (on an “as is” basis),"[5]; 25° C./60% RH, 1 month",99.4 % w/w
same,Polymorph by XRPD,"[5]; 25° C./60% RH, 1 month",Conforms to
same,Purity by HPLC,"[5]; 25° C./60% RH, 1 month",99.62 area %
same,Total impurities,"[5]; 25° C./60% RH, 1 month",0.38 area %
same,Water by Karl Fischer analysis,"[5]; 25° C./60% RH, 1 month",<0.1 % w/w
same,Appearance,"[5]; 25° C./60% RH, 3 months",Off-white
same,Assay by HPLC (on an anhydrous and solvent free basis),"[5]; 25° C./60% RH, 3 months",99.6 % w/w
same,DSC Tonset,"[5]; 25° C./60% RH, 3 months",150.8 °C
same,DSC Tpeak,"[5]; 25° C./60% RH, 3 months",152.2 °C
same,HPLC assay (on an “as is” basis),"[5]; 25° C./60% RH, 3 months",99.5 % w/w
same,Polymorph by XRPD,"[5]; 25° C./60% RH, 3 months",Conforms to
same,Purity by HPLC,"[5]; 25° C./60% RH, 3 months",99.70 area %
same,Total impurities,"[5]; 25° C./60% RH, 3 months",0.30 area %
same,Water by Karl Fischer analysis,"[5]; 25° C./60% RH, 3 months",<0.1 % w/w
same,Appearance,"[5]; 25° C./60% RH, Initial",Off-white
same,Assay by HPLC (on an anhydrous and solvent free basis),"[5]; 25° C./60% RH, Initial",101.0 % w/w
same,DSC Tonset,"[5]; 25° C./60% RH, Initial",151.3 °C
same,DSC Tpeak,"[5]; 25° C./60% RH, Initial",152.9 °C
same,HPLC assay (on an “as is” basis),"[5]; 25° C./60% RH, Initial",100.9 % w/w
same,Polymorph by XRPD,"[5]; 25° C./60% RH, Initial",Conforms to
same,Purity by HPLC,"[5]; 25° C./60% RH, Initial",99.70 area %
same,Total impurities,"[5]; 25° C./60% RH, Initial",0.30 area %
same,Water by Karl Fischer analysis,"[5]; 25° C./60% RH, Initial",<0.1 % w/w
same,Change in the XRPD diffractogram on storage,[5]; 25° C./60% RH,no change
same,Appearance,"[5]; 40° C./75% RH, 1 month",Off-white
same,Assay by HPLC (on an anhydrous and solvent free basis),"[5]; 40° C./75% RH, 1 month",99.5 % w/w
same,DSC Tonset,"[5]; 40° C./75% RH, 1 month",151.1 °C
same,DSC Tpeak,"[5]; 40° C./75% RH, 1 month",152.3 °C
same,HPLC assay (on an “as is” basis),"[5]; 40° C./75% RH, 1 month",99.4 % w/w
same,Polymorph by XRPD,"[5]; 40° C./75% RH, 1 month",Conforms to
same,Purity by HPLC,"[5]; 40° C./75% RH, 1 month",99.57 area %
same,Total impurities,"[5]; 40° C./75% RH, 1 month",0.43 area %
same,Water by Karl Fischer analysis,"[5]; 40° C./75% RH, 1 month",<0.1 % w/w
same,Appearance,"[5]; 40° C./75% RH, 3 months",Off-white
same,Assay by HPLC (on an anhydrous and solvent free basis),"[5]; 40° C./75% RH, 3 months",100.0 % w/w
same,DSC Tonset,"[5]; 40° C./75% RH, 3 months",150.6 °C
same,DSC Tpeak,"[5]; 40° C./75% RH, 3 months",152.5 °C
same,HPLC assay (on an “as is” basis),"[5]; 40° C./75% RH, 3 months",99.9 % w/w
same,Polymorph by XRPD,"[5]; 40° C./75% RH, 3 months",Conforms to
same,Purity by HPLC,"[5]; 40° C./75% RH, 3 months",99.71 area %
same,Total impurities,"[5]; 40° C./75% RH, 3 months",0.29 area %
same,Water by Karl Fischer analysis,"[5]; 40° C./75% RH, 3 months",0.1 % w/w
same,Appearance,"[5]; 40° C./75% RH, Initial",Off-white
same,Assay by HPLC (on an anhydrous and solvent free basis),"[5]; 40° C./75% RH, Initial",101.0 % w/w
same,DSC Tonset,"[5]; 40° C./75% RH, Initial",151.3 °C
same,DSC Tpeak,"[5]; 40° C./75% RH, Initial",152.9 °C
same,HPLC assay (on an “as is” basis),"[5]; 40° C./75% RH, Initial",100.9 % w/w
same,Polymorph by XRPD,"[5]; 40° C./75% RH, Initial",Conforms to
same,Purity by HPLC,"[5]; 40° C./75% RH, Initial",99.70 area %
same,Total impurities,"[5]; 40° C./75% RH, Initial",0.30 area %
same,Water by Karl Fischer analysis,"[5]; 40° C./75% RH, Initial",<0.1 % w/w
same,Change in the XRPD diffractogram on storage,[5]; 40° C./75% RH,no change
same,%-Wt (dry basis),"[6]; adsorption, about 0 %-RH",0.04722%
same,%-Wt (dry basis),"[6]; adsorption, about 10 %-RH",0.23%
same,%-Wt (dry basis),"[6]; adsorption, about 20 %-RH",0.3541%
same,%-Wt (dry basis),"[6]; adsorption, about 30 %-RH",0.7126%
same,%-Wt (dry basis),"[6]; adsorption, about 40 %-RH",0.825%
same,%-Wt (dry basis),"[6]; adsorption, about 50 %-RH",1.207%
same,%-Wt (dry basis),"[6]; adsorption, about 60 %-RH",1.699%
same,%-Wt (dry basis),"[6]; adsorption, about 70 %-RH",1.912%
same,%-Wt (dry basis),"[6]; adsorption, about 80 %-RH",2.186%
same,%-Wt (dry basis),"[6]; adsorption, about 90 %-RH",3.226%
same,%-Wt (dry basis),"[6]; desorption, about 0 %-RH",0.000368%
same,%-Wt (dry basis),"[6]; desorption, about 5 %-RH",0.1269%
same,%-Wt (dry basis),"[6]; desorption, about 15 %-RH",0.5017%
same,%-Wt (dry basis),"[6]; desorption, about 25 %-RH",0.7008%
same,%-Wt (dry basis),"[6]; desorption, about 35 %-RH",1.017%
same,%-Wt (dry basis),"[6]; desorption, about 45 %-RH",1.525%
same,%-Wt (dry basis),"[6]; desorption, about 55 %-RH",1.685%
same,%-Wt (dry basis),"[6]; desorption, about 65 %-RH",1.865%
same,%-Wt (dry basis),"[6]; desorption, about 75 %-RH",2.116%
same,%-Wt (dry basis),"[6]; desorption, about 85 %-RH",2.547%
same,"Increase in water content by GVS (hygroscopicity, in words)",[6]; up to 70% relative humidity,only a relatively gradual increase in water content
same,solubility,[7],< 500 µg/mL
same,XRPD of solid after slurry versus starting form,Slurry studies,different to that of FIG. 2a
